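48-hour exposure; five concentrations; linearly interpolated endpoints. The concentration for 50% growth inhibition is given as GI50. The concentration for full growth arrest is given as TGI.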
Assays:
Experiment in all cases: DTP human tumour cell line panel, 48 h
NCI-H226 lung = system: NCI-H226 lung
NCI-H23 lung = system: NCI-H23 lung
NCI-H460 lung = system: NCI-H460 lung
NCI-H522 lung = system: NCI-H522 lung
NCI/ADR-RES ovarian = system: NCI/ADR-RES ovarian
OVCAR-3 ovarian = system: OVCAR-3 ovarian
OVCAR-4 ovarian = system: OVCAR-4 ovarian
OVCAR-5 ovarian = system: OVCAR-5 ovarian
OVCAR-8 ovarian = system: OVCAR-8 ovarian
PC-3 prostate = system: PC-3 prostate
RPMI-8226 leukemia = system: RPMI-8226 leukemia
RXF 393 renal = system: RXF 393 renal
SF-268 CNS = system: SF-268 CNS
SF-295 CNS = system: SF-295 CNS
SF-539 CNS = system: SF-539 CNS
SK-MEL-2 melanoma = system: SK-MEL-2 melanoma
SK-MEL-28 melanoma = system: SK-MEL-28 melanoma
SK-MEL-5 melanoma = system: SK-MEL-5 melanoma
SK-OV-3 ovarian = system: SK-OV-3 ovarian
SN12C renal = system: SN12C renal
SNB-19 CNS = system: SNB-19 CNS
SR leukemia = system: SR leukemia
SW-620 colon = system: SW-620 colon
T-47D breast = system: T-47D breast
TK-10 renal = system: TK-10 renal
U251 CNS = system: U251 CNS
UACC-257 melanoma = system: UACC-257 melanoma
UACC-62 melanoma = system: UACC-62 melanoma
UO-31 renal = system: UO-31 renal

COc1ccc(C(=O)/C=C/c2cccc(Cl)c2Cl)cc1S(N)(=O)=O
GI50 (NCI-H226 lung): 2.3 µM | TGI (NCI-H226 lung): 7.5 µM | GI50 (NCI-H23 lung): 3.8 µM | TGI (NCI-H23 lung): 14.3 µM | GI50 (NCI-H460 lung): 1.89 µM | TGI (NCI-H460 lung): 4.94 µM | GI50 (NCI-H522 lung): 3.01 µM | TGI (NCI-H522 lung): 12.6 µM | GI50 (NCI/ADR-RES ovarian): 1.89 µM | TGI (NCI/ADR-RES ovarian): 4.75 µM | GI50 (OVCAR-3 ovarian): 1.8 µM | TGI (OVCAR-3 ovarian): 4.42 µM | GI50 (OVCAR-4 ovarian): 3.97 µM | TGI (OVCAR-4 ovarian): 16.7 µM | GI50 (OVCAR-5 ovarian): 1.91 µM | TGI (OVCAR-5 ovarian): 5.78 µM | GI50 (OVCAR-8 ovarian): 2.37 µM | TGI (OVCAR-8 ovarian): 8.78 µM | GI50 (PC-3 prostate): 4.49 µM | TGI (PC-3 prostate): 16.6 µM | GI50 (RPMI-8226 leukemia): 2.88 µM | TGI (RPMI-8226 leukemia): 16.2 µM | GI50 (RXF 393 renal): 2.09 µM | TGI (RXF 393 renal): 8.56 µM | GI50 (SF-268 CNS): 3.45 µM | TGI (SF-268 CNS): 14.5 µM | GI50 (SF-295 CNS): 3.89 µM | TGI (SF-295 CNS): 14.7 µM | GI50 (SF-539 CNS): 1.41 µM | TGI (SF-539 CNS): 2.61 µM | GI50 (SK-MEL-2 melanoma): 11.3 µM | TGI (SK-MEL-2 melanoma): 22.3 µM | GI50 (SK-MEL-28 melanoma): 11.1 µM | TGI (SK-MEL-28 melanoma): 22 µM | GI50 (SK-MEL-5 melanoma): 9.19 µM | TGI (SK-MEL-5 melanoma): 19.4 µM | GI50 (SK-OV-3 ovarian): 12.4 µM | TGI (SK-OV-3 ovarian): 23.8 µM | GI50 (SN12C renal): 1.82 µM | TGI (SN12C renal): 3.91 µM | GI50 (SNB-19 CNS): 5.09 µM | TGI (SNB-19 CNS): 16.1 µM | GI50 (SR leukemia): 1.54 µM | TGI (SR leukemia): 5.36 µM | GI50 (SW-620 colon): 1.58 µM | TGI (SW-620 colon): 3.3 µM | GI50 (T-47D breast): 3.94 µM | TGI (T-47D breast): 16.4 µM | GI50 (TK-10 renal): 5.18 µM | TGI (TK-10 renal): 16.9 µM | GI50 (U251 CNS): 1.31 µM | TGI (U251 CNS): 2.48 µM | GI50 (UACC-257 melanoma): 11.2 µM | TGI (UACC-257 melanoma): 22.5 µM | GI50 (UACC-62 melanoma): 4.85 µM | TGI (UACC-62 melanoma): 16.2 µM | GI50 (UO-31 renal): 1.48 µM | TGI (UO-31 renal): 3.51 µM
